Results on ten compounds are retold here after patent US4299836A, “Novel ergol-8-ene and ergolin compounds and process for preparing same” (Richter Gedeon Vegyeszeti Gyar Rt., priority 1979, dated 1981).

Counter-ions that a name gives are not always drawn. Like-named read-outs stand apart in the source and are kept apart here.

Series [1] concerns the target T1, serotonine receptor (Rattus norvegicus, UniProt P14842). On the set-up: The in vitro antiserotonine activity was determined in rat uterine horn preparation; from tissue; host or cells: rat uterine horn.
The target of series [2] is T1, serotonine receptor. The series can be described thus: in vivo. Type of series: in vivo. Conditions: for ED50: read-out: In vivo test ED50, 50% inhibition of serotonine induced oedema. On the set-up: For the in vivo studies the rat paw-oedema test was applied; from tissue; host or cells: live rat, paw.
A short description of series [3]: hypotensive activity in anesthetized cats. It counts as in vivo. As for the experimental part: The measurements were performed in cats anesthetized with 30 mg/kg of Pentothal (5-ethyl-5-(1-methylbutyl)-2-thiobarbituric acid sodium salt). The left femoral artery was cannulated; the arterial blood pressure was measured by means of Statham P 23 pressure transducer and registrated by a Hellige polygraph. The test compounds were injected into the right femoral vein. (Method: Mc Leod L. J., in: Pharmacological Experiments on Intact Preparations, E. S. Livingstone, Edinburgh and London, 1970, pp. 65-66.)

Series [4] in a line: oral blood pressure lowering in awake spontaneously hypertensive rats. Conditions: 1.0 to 2.5 mg/kg orally. Type of series: in vivo. The source says: A group of the new compounds according to the invention exerts hypotensive effect on anesthetized animals in low dosages. […] The hypotensive effect of the compounds is accompanied by bradycardia; they inhibit the vasomotor reflexes acting both at central and peripheral target structures. The mechanism of hypotensive effect is different in certain aspects from that of the hydrogenated ergot alkaloids; namely, the new derivatives have no or only negligible adrenolytic activity. Thus, the hypotensive effect is mainly due to an action exerted on the vasomotor center. These derivatives lower the blood pressure also in hypertensive animals upon oral administration. […] The compounds according to the invention exert powerful hypotensive action also in cats.

In series [5] the target is dopamine receptor. The series can be described thus: dopamine receptor stimulant activity in vitro, electrically stimulated mouse vas deferens preparation. Conditions: for IC50: electrically stimulated mouse vas deferens, read-out: In vitro test Mouse vas deferens ID50. As to the method:
The dopamine receptor stimulant activities in vitro were determined on electrically stimulated mouse vas deferens preparation (J. Hughes et al., Brit. J. Pharmacol. 53, 371-381 /1975/).

A short description of series [6]: acute toxicity (LD50) in mice. Conditions: mouse, in vivo, evaluated 24 hours after administration.
The subject of series [7] is dopamine receptor. The series can be described thus: antagonism of narcosis-potentiating effect of Haloperidol in rats. Type of series: in vivo. As for the experimental part: The in vivo measurements were performed on rats. The antagonism of narcosis-(Hexobarbital Na, 50 mg/kg i.v.)-potentiating effect of Haloperidol (5 mg/kg i.p.) was determined according to Borsy et al. (Acta Physiol. 27, 65-80 /1965/).

The subject of series [8] is reserpine-induced hypotermy. The series can be described thus: antagonism of reserpine-induced hypotermy in mice (antidepressant activity). Type of series: in vivo. Conditions: for antidepressant efficacy/potency compared with Imipramine: mouse, in vivo. As for the experimental part:
The antidepressant activity was assessed by measuring the antagonism of reserpine-induced hypotermy in mice. The change in body temperature (Δt) was detected as compared to the control animals (B. M. Askew, Life Sci. 10, 725 /1963/). The acute toxicity data /LD50 / were determined on mice; the evaluation was performed 24 hours after the administration of the compounds (J. T. Litchfield and F. Wilcoxon, J. Pharmacol. exp. Ther. 96, 99 /1949/).

T1 sequence (P14842 whole entry): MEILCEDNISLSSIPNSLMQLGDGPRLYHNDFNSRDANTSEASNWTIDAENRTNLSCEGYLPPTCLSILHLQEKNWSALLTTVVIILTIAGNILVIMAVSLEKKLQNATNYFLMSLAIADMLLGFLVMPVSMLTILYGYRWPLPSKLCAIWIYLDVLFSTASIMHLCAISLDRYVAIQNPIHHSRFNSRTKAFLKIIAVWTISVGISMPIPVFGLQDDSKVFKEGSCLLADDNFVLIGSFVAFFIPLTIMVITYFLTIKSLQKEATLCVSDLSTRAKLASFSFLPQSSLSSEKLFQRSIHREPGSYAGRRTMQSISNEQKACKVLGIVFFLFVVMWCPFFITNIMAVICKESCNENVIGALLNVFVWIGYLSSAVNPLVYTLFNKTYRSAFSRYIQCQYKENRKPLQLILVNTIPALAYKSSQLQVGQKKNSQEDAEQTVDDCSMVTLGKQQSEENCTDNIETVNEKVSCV

A word on the ED50: it is the dose at which the effect has come halfway, by size or by number of responders. Compound `CN1CC(CN(CCOS(C)(=O)=O)S(C)(=O)=O)CC2c3cccc4c3c(cn4C)CC21` (centres unmarked) [Example 9, 1,6-dimethyl-8-[(N-methanesulfonyl, N-methanesulfonyloxy-ethyl)-aminomethyl]-ergoline hydrogen maleate] had an IC50 at serotonine receptor [1] of 106 nM. Besides, the results for the ED50 on serotonine receptor [2] (po) and at serotonine receptor [2] (sc) were 1 mg/kg and 0.082 mg/kg, respectively. Besides, the Duration of action in series [3] (0.5 mg/kg i.v.) worked out at 1 h.
`CN1CC(CN(CCN=[N+]=[N-])S(C)(=O)=O)CC2c3cccc4c3c(c(Br)n4C)CC21` (centres unmarked) [Example 11, 2-bromo-1,6-dimethyl-8-[(N-methanesulfonyl, N-azidoethyl)-aminomethyl]-ergoline tartarate] had an IC50 against serotonine receptor [1] of 101 nM. The ED50 turned out to be 2 mg/kg on serotonine receptor [2] (po) and 0.3 mg/kg on serotonine receptor [2] (sc). Moreover, the Duration of action in series [3] (0.25 mg/kg i.v.) and in series [3] (0.5 mg/kg i.v.) was 2 h each time.
On serotonine receptor [1], `CN1CC(CN(CCN=[N+]=[N-])S(C)(=O)=O)CC2c3cccc4c3c(cn4C)CC21` (centres unmarked) [Example 10, 1,6-dimethyl-8-[(N-methanesulfonyl, N-azidoethyl)-aminomethyl]-ergoline hydrogen maleate] showed an IC50 of 2.4 nM. In addition, at serotonine receptor [2] (in vivo, po), the “potency compared with Methysergide upon oral administration” value is listed as “more potent than Methysergide”. Also, the ED50 at serotonine receptor [2] (po) came to 0.47 mg/kg; at serotonine receptor [2] (sc), 0.042 mg/kg. The compound further had a Duration of action in series [3] (0.5 mg/kg i.v.) of 1.5 h.
By LD50 is commonly meant the dose at which mortality reaches 50%. For `CN1CC(CN(CCN=[N+]=[N-])S(C)(=O)=O)=CC2c3cccc4[nH]cc(c34)CC21` (centres unmarked) [Example 2, 6-Methyl-8-[(N-methanesulfonyl, N-azidoethyl)-aminomethyl]-ergol-8-ene hydrogen maleate], in series [4], the “blood pressure lowering (in words)” value is “lowered the blood pressure for several hours”. For the same compound, at dopamine receptor [5], the IC50 turned out to be 50 nM. In addition, the “dopamine stimulant efficacy compared with Bromocryptine in vitro” value in the series with dopamine receptor [5] (in vitro) is given as “close to that of Bromocryptine”. Besides, the LD50 at 24 h in series [6] (ip) and in series [6] (po) was 100 mg/kg in each case. Moreover, the Duration of action in series [3] (0.1 mg/kg i.v.) and in series [3] (0.5 mg/kg i.v.) was 2 h in each case. Further, the “Antagonism of Haloperidol effect in rats, Inhibition” value amounted to 68.7% in the series with dopamine receptor [7] (3.0 mg/kg s.c.), 38.9% in the series with dopamine receptor [7] (10.0 mg/kg p.o.), 92.2% with dopamine receptor [7] (10.0 mg/kg s.c.) and 48.2% in the series on dopamine receptor [7] (30.0 mg/kg p.o.). In addition, in the series on dopamine receptor [7] (in vivo), the “dopamine stimulant potency compared with Bromocryptine in vivo” value is “higher than that of the reference substance”. The “pharmacodynamic effects upon oral administration (in words)” value in the series with dopamine receptor [7] (oral) is recorded as “could also be detected upon oral administration”. Also, the “Antidepressant activity, Δt (change in body temperature vs control)” value in series [8] (10 mg/kg p.o., reserpine-induced hypotermy, mice) was “+6.5 °C”. For the same compound, the “antidepressant efficacy/potency compared with Imipramine” value in series [8] is reported as “higher than that of Imipramine”.
Take `CN1CC(CN(CCN=[N+]=[N-])S(C)(=O)=O)=CC2c3cccc4[nH]c(Br)c(c34)CC21` (centres unmarked) [Example 3, 2-Bromo-6-methyl-8-[(N-methanesulfonyl, N-azidoethyl/aminomethyl]-ergol-8-ene hydrogen maleate]: the Duration of action in series [3] (0.1 mg/kg i.v.) and in series [3] (0.5 mg/kg i.v.) was 1.5 h in each case.
On to `CC(C)C[C@H]1C(=O)N2CCC[C@H]2[C@]2(O)O[C@](NC(=O)[C@@H]3C=C4c5cccc6[nH]c(Br)c(c56)C[C@H]4N(C)C3)(C(C)C)C(=O)N12` [Bromocryptine, 2-bromo-α-ergocryptine, reference compound], for which, on dopamine receptor [5], the IC50 is 20 nM. The “Antagonism of Haloperidol effect in rats, Inhibition” value in the series on dopamine receptor [7] (10.0 mg/kg p.o.) was 25.9%; with dopamine receptor [7] (10.0 mg/kg s.c.) it was 26.2%; in the series with dopamine receptor [7] (30.0 mg/kg p.o.), 54.8%; in the series with dopamine receptor [7] (30.0 mg/kg s.c.), 34.2%.
As for `CN1CC(CN(CCOS(C)(=O)=O)S(C)(=O)=O)=CC2c3cccc4[nH]cc(c34)CC21` (centres unmarked) [Example 1, 6-Methyl-8-[(N-methanesulfonyl, N-methanesulfonyloxyethyl)-aminomethyl]-ergol-8-ene hydrogen maleate], the LD50 at 24 h in series [6] (ip) and in series [6] (po) was 100 mg/kg throughout. The compound also registered a Duration of action in series [3] (0.5 mg/kg i.v.) of 1.5 to 2 h. Moreover, the “antidepressant efficacy/potency compared with Imipramine” value in series [8] is “equal to”.
In series [3] (0.2 mg/kg i.v.), `CN1C[C@H](C(=O)N[C@]2(C)O[C@@]3(O)[C@@H]4CCCN4C(=O)[C@H](Cc4ccccc4)N3C2=O)C[C@@H]2c3cccc4[nH]cc(c34)C[C@H]21` [Dihydroergotamine, reference compound] yielded a Duration of action of 0.5 h.
`CN1CC(CN(CCN=[N+]=[N-])S(C)(=O)=O)CC2c3cccc4[nH]cc(c34)CC21` (centres unmarked) [Example 7, 6-Methyl-8-[(N-methanesulfonyl, N-azidoethyl)-aminomethyl]-ergoline hydrogen maleate] had an IC50 at serotonine receptor [1] of 2.48 nM. The results for the ED50 at serotonine receptor [2] (po) and on serotonine receptor [2] (sc) were 1.7 mg/kg and 0.29 mg/kg, respectively. The Duration of action in series [3] (0.5 mg/kg i.v.) was 1 h.
`CN1CC(CN(CCN=[N+]=[N-])S(C)(=O)=O)=CC2c3cccc4c3c(cn4C)CC21` (centres unmarked) [Example 4, 1,6-Dimethyl-8-[(N-methanesulfonyl, N-azidoethyl/aminomethyl]-ergol-8-ene tartarate]: the IC50 against serotonine receptor [1] is 1.21 nM. Moreover, the ED50 on serotonine receptor [2] (po) was determined as 3.7 mg/kg; on serotonine receptor [2] (sc), 0.22 mg/kg. Further, the Duration of action in series [3] (0.1 mg/kg i.v.) is 1.5 h; in series [3] (0.5 mg/kg i.v.), 2 h.
